{"source": "paper PMC5862592", "about": "“CDK8/19 inhibition induces premature G1/S transition and ATR-dependent cell death in prostate cancer cells” (Oncotarget, 2018)", "assay_in_all_cases": "biochemical", "parameters_in_all_cases": "KINOMEscan active site-directed competition binding assay (DiscoveRx), 456 kinases, per cent of control at 300 nM", "details_in_all_cases": "read-out: Percent of Control (%)", "key": {"[1]": {"molecular_target": "KIT-autoinhibited (Homo sapiens, UniProt P10721)", "sequence (P10721 whole entry)": "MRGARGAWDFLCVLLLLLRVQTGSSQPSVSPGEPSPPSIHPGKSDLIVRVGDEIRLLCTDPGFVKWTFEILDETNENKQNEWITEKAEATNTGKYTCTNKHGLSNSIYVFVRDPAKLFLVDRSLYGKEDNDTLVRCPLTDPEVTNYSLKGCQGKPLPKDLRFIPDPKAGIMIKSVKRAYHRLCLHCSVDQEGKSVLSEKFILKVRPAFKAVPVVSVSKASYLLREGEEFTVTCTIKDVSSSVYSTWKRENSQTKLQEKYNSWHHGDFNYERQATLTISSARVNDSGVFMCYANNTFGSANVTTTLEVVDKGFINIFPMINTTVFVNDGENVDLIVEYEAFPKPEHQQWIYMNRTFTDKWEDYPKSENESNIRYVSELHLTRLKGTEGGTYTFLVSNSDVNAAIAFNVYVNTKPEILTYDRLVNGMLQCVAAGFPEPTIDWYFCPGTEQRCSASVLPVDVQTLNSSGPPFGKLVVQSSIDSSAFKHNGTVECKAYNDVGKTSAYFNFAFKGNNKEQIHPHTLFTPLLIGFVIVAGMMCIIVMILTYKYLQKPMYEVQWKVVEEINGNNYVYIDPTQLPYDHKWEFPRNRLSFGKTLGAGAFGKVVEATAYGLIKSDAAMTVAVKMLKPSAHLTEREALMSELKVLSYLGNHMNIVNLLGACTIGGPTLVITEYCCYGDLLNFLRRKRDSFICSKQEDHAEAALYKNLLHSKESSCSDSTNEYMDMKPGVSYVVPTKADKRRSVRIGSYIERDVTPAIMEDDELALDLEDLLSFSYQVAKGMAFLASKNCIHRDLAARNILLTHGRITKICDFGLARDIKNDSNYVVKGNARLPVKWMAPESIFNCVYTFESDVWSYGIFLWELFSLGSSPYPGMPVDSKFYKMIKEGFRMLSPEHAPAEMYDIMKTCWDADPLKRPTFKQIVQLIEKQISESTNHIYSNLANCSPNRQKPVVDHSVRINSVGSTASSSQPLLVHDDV", "summary_of_the_method": "(§1)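 At 300 nmol/L, compounds were assessed for kinase binding in an active site-directed competition format covering 456 kinases.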"}, "[2]": {"molecular_target": "T1, RPS6KA4(Kin.Dom.2-C-terminal) (Homo sapiens, UniProt O75676)", "T1 construct": "Kin.Dom.2-C-terminal", "summary_of_the_method": "as §1"}, "[3]": {"molecular_target": "T2, RSK4(Kin.Dom.2-C-terminal) (Homo sapiens, UniProt Q9UK32)", "T2 construct": "gene RPS6KA6; Kin.Dom.2-C-terminal", "summary_of_the_method": "as §1"}, "[4]": {"molecular_target": "EPHA5 (Homo sapiens, UniProt P54756)", "sequence (P54756 whole entry)": "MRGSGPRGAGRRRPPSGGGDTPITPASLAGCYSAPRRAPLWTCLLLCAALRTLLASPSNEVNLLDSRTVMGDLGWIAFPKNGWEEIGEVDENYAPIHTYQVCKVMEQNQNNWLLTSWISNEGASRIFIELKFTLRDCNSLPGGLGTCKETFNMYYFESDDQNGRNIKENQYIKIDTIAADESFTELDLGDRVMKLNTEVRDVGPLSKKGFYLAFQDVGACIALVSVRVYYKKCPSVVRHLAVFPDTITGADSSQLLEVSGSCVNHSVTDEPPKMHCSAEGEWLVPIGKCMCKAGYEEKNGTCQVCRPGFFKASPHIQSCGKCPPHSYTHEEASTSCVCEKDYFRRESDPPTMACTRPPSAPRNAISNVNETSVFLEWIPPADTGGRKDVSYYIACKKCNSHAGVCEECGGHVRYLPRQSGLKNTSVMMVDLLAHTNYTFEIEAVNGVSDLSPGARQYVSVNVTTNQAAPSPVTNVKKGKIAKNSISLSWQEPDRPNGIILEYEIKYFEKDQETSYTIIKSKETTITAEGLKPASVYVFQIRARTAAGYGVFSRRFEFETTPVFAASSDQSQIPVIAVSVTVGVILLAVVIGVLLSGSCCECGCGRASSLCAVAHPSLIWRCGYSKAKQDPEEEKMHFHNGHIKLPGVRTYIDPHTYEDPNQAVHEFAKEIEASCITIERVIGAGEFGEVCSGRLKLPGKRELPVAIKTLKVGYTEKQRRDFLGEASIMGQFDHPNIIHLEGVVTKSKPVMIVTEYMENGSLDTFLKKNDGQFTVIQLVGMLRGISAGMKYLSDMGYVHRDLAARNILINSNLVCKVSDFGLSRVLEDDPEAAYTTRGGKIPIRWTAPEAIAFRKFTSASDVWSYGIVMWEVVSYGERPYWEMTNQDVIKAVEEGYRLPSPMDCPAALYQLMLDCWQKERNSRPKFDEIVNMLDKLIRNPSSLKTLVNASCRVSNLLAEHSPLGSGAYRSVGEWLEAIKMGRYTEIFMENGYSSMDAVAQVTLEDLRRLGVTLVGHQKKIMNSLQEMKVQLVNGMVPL", "summary_of_the_method": "as §1"}, "[5]": {"molecular_target": "MTOR (Homo sapiens, UniProt P42345)", "summary_of_the_method": "as §1"}, "[6]": {"molecular_target": "MYLK (Homo sapiens, UniProt Q15746)", "summary_of_the_method": "as §1"}, "[7]": {"molecular_target": "CDK9 (Homo sapiens, UniProt P50750)", "sequence (P50750 whole entry)": "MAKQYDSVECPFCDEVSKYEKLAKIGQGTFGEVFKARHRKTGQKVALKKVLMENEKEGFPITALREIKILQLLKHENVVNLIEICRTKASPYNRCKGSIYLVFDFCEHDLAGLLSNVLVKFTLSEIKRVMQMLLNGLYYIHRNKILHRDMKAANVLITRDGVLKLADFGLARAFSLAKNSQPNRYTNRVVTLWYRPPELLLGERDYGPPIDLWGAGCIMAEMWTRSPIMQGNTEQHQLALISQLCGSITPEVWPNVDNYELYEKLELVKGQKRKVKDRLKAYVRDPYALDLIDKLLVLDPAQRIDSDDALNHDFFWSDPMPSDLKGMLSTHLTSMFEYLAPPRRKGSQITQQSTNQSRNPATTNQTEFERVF", "summary_of_the_method": "as §1"}, "[8]": {"molecular_target": "T3, HPK1 (Homo sapiens, UniProt Q92918)", "T3 construct": "gene MAP4K1", "summary_of_the_method": "as §1"}, "[9]": {"molecular_target": "T4, TYK2(JH2domain-pseudokinase) (Homo sapiens, UniProt P29597)", "T4 construct": "JH2domain-pseudokinase", "summary_of_the_method": "as §1"}, "[10]": {"molecular_target": "RET(V804L) (Homo sapiens, UniProt P07949, V804L)", "sequence (P07949 whole entry V804L)": "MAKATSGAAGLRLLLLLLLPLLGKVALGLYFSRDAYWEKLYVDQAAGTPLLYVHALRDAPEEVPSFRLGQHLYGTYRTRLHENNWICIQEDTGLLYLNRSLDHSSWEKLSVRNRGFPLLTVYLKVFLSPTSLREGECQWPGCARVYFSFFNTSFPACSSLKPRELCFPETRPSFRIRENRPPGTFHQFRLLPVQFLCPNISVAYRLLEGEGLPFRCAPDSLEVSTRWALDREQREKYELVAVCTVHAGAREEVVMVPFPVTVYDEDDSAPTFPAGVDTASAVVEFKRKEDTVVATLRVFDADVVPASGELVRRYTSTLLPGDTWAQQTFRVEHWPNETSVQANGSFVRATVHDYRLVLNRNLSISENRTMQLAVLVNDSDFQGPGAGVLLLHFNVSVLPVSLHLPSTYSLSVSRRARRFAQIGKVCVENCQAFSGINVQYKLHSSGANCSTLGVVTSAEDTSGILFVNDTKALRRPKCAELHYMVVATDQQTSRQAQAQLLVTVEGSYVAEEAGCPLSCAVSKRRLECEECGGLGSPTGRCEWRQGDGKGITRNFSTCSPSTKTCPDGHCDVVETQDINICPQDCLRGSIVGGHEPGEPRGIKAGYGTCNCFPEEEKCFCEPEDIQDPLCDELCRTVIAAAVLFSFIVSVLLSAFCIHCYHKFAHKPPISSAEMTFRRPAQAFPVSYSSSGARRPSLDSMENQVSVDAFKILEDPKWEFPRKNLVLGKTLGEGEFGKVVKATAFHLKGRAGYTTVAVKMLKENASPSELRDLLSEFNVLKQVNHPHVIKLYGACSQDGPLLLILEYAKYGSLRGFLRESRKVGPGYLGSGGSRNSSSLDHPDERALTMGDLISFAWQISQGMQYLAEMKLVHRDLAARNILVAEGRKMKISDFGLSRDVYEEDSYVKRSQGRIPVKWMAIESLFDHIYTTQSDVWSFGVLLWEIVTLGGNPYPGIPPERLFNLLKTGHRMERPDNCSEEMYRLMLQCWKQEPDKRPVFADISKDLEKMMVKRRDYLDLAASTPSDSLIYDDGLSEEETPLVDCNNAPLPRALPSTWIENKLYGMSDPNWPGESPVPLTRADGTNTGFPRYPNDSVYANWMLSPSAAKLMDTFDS", "summary_of_the_method": "as §1"}, "[11]": {"molecular_target": "STK39 (Homo sapiens, UniProt Q9UEW8)", "summary_of_the_method": "as §1"}, "[12]": {"molecular_target": "T5, PRKR (Homo sapiens, UniProt P19525)", "T5 construct": "gene EIF2AK2", "summary_of_the_method": "as §1"}, "[13]": {"molecular_target": "LRRK2 (Homo sapiens, UniProt Q5S007)", "summary_of_the_method": "as §1"}, "[14]": {"molecular_target": "SGK2 (Homo sapiens, UniProt Q9HBY8)", "summary_of_the_method": "as §1"}, "[15]": {"molecular_target": "T6, DCAMKL2 (Homo sapiens, UniProt Q8N568)", "T6 construct": "gene DCLK2", "summary_of_the_method": "as §1"}, "[16]": {"molecular_target": "GSK3A (Homo sapiens, UniProt P49840)", "sequence (P49840 whole entry)": "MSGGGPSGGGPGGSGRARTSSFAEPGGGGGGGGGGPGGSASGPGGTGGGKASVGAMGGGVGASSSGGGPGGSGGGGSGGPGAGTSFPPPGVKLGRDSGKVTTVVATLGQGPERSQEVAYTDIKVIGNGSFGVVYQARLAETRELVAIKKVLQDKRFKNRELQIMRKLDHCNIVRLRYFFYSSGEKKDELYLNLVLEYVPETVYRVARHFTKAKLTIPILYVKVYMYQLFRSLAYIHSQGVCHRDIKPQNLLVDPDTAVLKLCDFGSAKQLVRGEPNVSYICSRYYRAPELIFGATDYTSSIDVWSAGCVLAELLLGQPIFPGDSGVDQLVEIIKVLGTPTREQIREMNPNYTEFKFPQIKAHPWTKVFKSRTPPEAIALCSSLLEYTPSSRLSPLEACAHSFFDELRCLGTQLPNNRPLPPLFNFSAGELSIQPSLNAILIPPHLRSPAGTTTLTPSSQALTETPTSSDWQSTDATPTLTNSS", "summary_of_the_method": "as §1"}, "[17]": {"molecular_target": "T7, RPS6KA5(Kin.Dom.1-N-terminal) (Homo sapiens, UniProt O75582)", "T7 construct": "Kin.Dom.1-N-terminal", "summary_of_the_method": "as §1"}, "[18]": {"molecular_target": "T8, MRCKB (Homo sapiens, UniProt Q9Y5S2)", "T8 construct": "gene CDC42BPB", "summary_of_the_method": "as §1"}, "[19]": {"molecular_target": "PIK3CA(E542K) (Homo sapiens, UniProt P42336, E542K)", "sequence (P42336 whole entry E542K)": "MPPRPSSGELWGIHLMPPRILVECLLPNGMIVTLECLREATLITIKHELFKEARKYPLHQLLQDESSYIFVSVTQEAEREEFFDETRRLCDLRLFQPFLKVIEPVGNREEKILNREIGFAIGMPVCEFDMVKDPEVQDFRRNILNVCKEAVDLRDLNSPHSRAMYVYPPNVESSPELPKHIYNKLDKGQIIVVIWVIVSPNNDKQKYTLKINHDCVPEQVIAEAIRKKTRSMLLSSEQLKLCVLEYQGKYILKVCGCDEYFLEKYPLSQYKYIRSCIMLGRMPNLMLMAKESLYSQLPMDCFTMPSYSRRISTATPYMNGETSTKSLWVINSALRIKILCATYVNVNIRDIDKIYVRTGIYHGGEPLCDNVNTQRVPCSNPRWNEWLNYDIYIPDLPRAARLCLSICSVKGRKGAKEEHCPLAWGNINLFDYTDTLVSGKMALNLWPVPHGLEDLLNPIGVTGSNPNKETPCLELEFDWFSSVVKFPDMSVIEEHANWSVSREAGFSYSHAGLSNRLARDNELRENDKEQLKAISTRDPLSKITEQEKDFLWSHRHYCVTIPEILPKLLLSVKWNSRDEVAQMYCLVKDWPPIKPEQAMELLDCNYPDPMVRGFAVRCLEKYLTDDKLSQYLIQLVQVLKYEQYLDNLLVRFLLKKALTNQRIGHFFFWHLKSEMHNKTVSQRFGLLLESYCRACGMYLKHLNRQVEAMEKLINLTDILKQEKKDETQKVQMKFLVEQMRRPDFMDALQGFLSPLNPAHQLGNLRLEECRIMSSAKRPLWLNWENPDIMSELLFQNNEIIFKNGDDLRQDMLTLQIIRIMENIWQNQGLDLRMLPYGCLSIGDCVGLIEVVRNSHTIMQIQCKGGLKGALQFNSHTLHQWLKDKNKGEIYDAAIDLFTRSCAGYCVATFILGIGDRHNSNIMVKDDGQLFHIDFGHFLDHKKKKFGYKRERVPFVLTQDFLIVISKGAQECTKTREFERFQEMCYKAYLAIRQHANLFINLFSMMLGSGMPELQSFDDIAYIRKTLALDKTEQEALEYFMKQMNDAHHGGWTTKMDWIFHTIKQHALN", "summary_of_the_method": "as §1"}, "[20]": {"molecular_target": "FLT3(N841I) (Homo sapiens, UniProt P36888, N841I)", "summary_of_the_method": "as §1"}, "[21]": {"molecular_target": "FLT3-autoinhibited (Homo sapiens, UniProt P36888)", "summary_of_the_method": "as §1"}}, "note": "Like-named read-outs stand apart in the source and are kept apart here.", "data": [{"compound": "O=C(/C=C/c1cnccc1-c1ccc(F)cc1)Nc1ccc(CCc2nnco2)cc1", "note": "[T-418, (2E)-3-(4-(4-fluorophenyl)pyridin-3-yl)-N-(4-(2-(1,3,4-oxadiazol-2-yl)ethyl)phenyl)acrylamide]", "values": [{"measurement": "remaining binding at 0.3 µM", "setting": "[1]; sheet T-418", "result": 100, "unit": "%"}, {"measurement": "remaining binding at 0.3 µM", "setting": "[2]; sheet T-418", "result": 86, "unit": "%"}, {"measurement": "remaining binding at 0.3 µM", "setting": "[3]; sheet T-418", "result": 100, "unit": "%"}, {"measurement": "remaining binding at 0.3 µM", "setting": "[4]; sheet T-418", "result": 96, "unit": "%"}, {"measurement": "remaining binding at 0.3 µM", "setting": "[5]; sheet T-418", "result": 100, "unit": "%"}, {"measurement": "remaining binding at 0.3 µM", "setting": "[6]; sheet T-418", "result": 100, "unit": "%"}, {"measurement": "remaining binding at 0.3 µM", "setting": "[7]; sheet T-418", "result": 83, "unit": "%"}, {"measurement": "remaining binding at 0.3 µM", "setting": "[8]; sheet T-418", "result": 95, "unit": "%"}, {"measurement": "remaining binding at 0.3 µM", "setting": "[9]; sheet T-418", "result": 100, "unit": "%"}, {"measurement": "remaining binding at 0.3 µM", "setting": "[10]; sheet T-418", "result": 81, "unit": "%"}, {"measurement": "remaining binding at 0.3 µM", "setting": "[11]; sheet T-418", "result": 100, "unit": "%"}, {"measurement": "remaining binding at 0.3 µM", "setting": "[12]; sheet T-418", "result": 100, "unit": "%"}, {"measurement": "remaining binding at 0.3 µM", "setting": "[13]; sheet T-418", "result": 94, "unit": "%"}, {"measurement": "remaining binding at 0.3 µM", "setting": "[14]; sheet T-418", "result": 94, "unit": "%"}, {"measurement": "remaining binding at 0.3 µM", "setting": "[15]; sheet T-418", "result": 100, "unit": "%"}, {"measurement": "remaining binding at 0.3 µM", "setting": "[16]; sheet T-418", "result": 64, "unit": "%"}, {"measurement": "remaining binding at 0.3 µM", "setting": "[17]; sheet T-418", "result": 80, "unit": "%"}, {"measurement": "remaining binding at 0.3 µM", "setting": "[18]; sheet T-418", "result": 100, "unit": "%"}, {"measurement": "remaining binding at 0.3 µM", "setting": "[19]; sheet T-418", "result": 100, "unit": "%"}, {"measurement": "remaining binding at 0.3 µM", "setting": "[20]; sheet T-418", "result": 79, "unit": "%"}, {"measurement": "remaining binding at 0.3 µM", "setting": "[21]; sheet T-418", "result": 89, "unit": "%"}]}, {"compound": "Cc1ncccc1Oc1sc(C(N)=O)c2c1-c1c(cnn1C)CC2", "note": "[T-474, 1-methyl-8-((2-methylpyridin-3-yl)oxy)-4,5-dihydro-1H-thieno[3,4-g]indazole-6-carboxamide]", "values": [{"measurement": "remaining binding at 0.3 µM", "setting": "[1]", "result": 100, "unit": "%"}, {"measurement": "remaining binding at 0.3 µM", "setting": "[2]", "result": 95, "unit": "%"}, {"measurement": "remaining binding at 0.3 µM", "setting": "[3]", "result": 100, "unit": "%"}, {"measurement": "remaining binding at 0.3 µM", "setting": "[4]", "result": 98, "unit": "%"}, {"measurement": "remaining binding at 0.3 µM", "setting": "[5]", "result": 82, "unit": "%"}, {"measurement": "remaining binding at 0.3 µM", "setting": "[6]", "result": 100, "unit": "%"}, {"measurement": "remaining binding at 0.3 µM", "setting": "[7]", "result": 80, "unit": "%"}, {"measurement": "remaining binding at 0.3 µM", "setting": "[8]", "result": 78, "unit": "%"}, {"measurement": "remaining binding at 0.3 µM", "setting": "[9]", "result": 100, "unit": "%"}, {"measurement": "remaining binding at 0.3 µM", "setting": "[10]", "result": 94, "unit": "%"}, {"measurement": "remaining binding at 0.3 µM", "setting": "[11]", "result": 100, "unit": "%"}, {"measurement": "remaining binding at 0.3 µM", "setting": "[12]", "result": 100, "unit": "%"}, {"measurement": "remaining binding at 0.3 µM", "setting": "[13]", "result": 95, "unit": "%"}, {"measurement": "remaining binding at 0.3 µM", "setting": "[14]", "result": 95, "unit": "%"}, {"measurement": "remaining binding at 0.3 µM", "setting": "[15]", "result": 100, "unit": "%"}, {"measurement": "remaining binding at 0.3 µM", "setting": "[16]", "result": 70, "unit": "%"}, {"measurement": "remaining binding at 0.3 µM", "setting": "[17]", "result": 100, "unit": "%"}, {"measurement": "remaining binding at 0.3 µM", "setting": "[18]", "result": 100, "unit": "%"}, {"measurement": "remaining binding at 0.3 µM", "setting": "[19]", "result": 100, "unit": "%"}, {"measurement": "remaining binding at 0.3 µM", "setting": "[20]", "result": 97, "unit": "%"}, {"measurement": "remaining binding at 0.3 µM", "setting": "[21]", "result": 78, "unit": "%"}]}]}
